The values that follow come from US8940705B2, “Method of treating disease and selectively modulating transcriptional regulation by a glucocorticoid receptor by administering aclacinomycin and dexamethasone” (The Regents of the University of California, priority 2009, dated 2015).

Assay type in all cases: cell-based
Experiment [1] has as its target T1, GR (Homo sapiens, UniProt P04150).
T1 sequence (P04150 1-777): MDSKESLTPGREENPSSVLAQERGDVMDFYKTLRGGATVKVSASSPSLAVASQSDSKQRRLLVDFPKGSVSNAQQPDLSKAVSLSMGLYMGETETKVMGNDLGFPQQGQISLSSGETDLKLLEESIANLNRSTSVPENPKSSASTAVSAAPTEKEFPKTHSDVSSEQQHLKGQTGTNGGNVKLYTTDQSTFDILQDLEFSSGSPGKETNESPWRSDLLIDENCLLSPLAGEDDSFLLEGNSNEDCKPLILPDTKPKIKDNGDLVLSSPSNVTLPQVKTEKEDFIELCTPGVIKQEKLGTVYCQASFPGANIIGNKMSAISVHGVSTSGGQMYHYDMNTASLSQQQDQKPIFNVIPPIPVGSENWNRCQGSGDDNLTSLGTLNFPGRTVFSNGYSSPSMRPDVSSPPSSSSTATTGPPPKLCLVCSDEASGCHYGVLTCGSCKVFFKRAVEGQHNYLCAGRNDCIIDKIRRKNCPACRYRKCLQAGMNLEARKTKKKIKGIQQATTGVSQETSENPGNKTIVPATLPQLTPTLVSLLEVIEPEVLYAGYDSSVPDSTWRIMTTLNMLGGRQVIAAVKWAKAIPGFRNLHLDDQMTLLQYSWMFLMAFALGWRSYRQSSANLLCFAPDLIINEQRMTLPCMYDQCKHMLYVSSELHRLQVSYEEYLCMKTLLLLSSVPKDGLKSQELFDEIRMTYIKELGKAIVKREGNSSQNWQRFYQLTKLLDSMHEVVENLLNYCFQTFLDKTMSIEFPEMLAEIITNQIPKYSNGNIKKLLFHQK
As to the kind of experiment: Multi-promoter fluorescent protein reporter compound screen for GR modulators. The settings on record: A549 cells, library compounds 2.5 μM with dex 100 nM; reporter fluorescence relative to plate mean. Also on record: endogenous in cells; host or cells: A549. The protocol: Compound Screen. A549 cells were transfected with an equal mixture of pENaC-CFP, pGILZ-YFP, pFKBP5-OFP (1.3 μg each), or with pSV40-ChFP (4 μg). The next day, cells were mixed (˜1.8×10^4 of the cells triple-transfected with pENaC-CFP, pGILZ-YFP, pFKBP5-OFP; ˜2×10^3 cells transfected with pSV40-ChFP) and replated into 96 well plates (Costar 3603). 2 hours later, library compounds (2.5 μM) and dex (100 nM) were added using a Biomek robot. The following day, cells were fixed for 4 minutes in 4% paraformaldehyde and fluorescence was measured sequentially for each reporter using a Safire plate reader (Tecan). Hits were scored based on the mean and standard deviation (s.d.) of the experimental wells on each plate. Criteria for a hit were if one reporter was more than 1.5×s.d. from the mean in duplicate, or if two reporters were more than 0.8×s.d. from the mean in duplicate. If the control SV40-ChFP was more than 2×s.d. from the mean in a single plate, or 0.8×s.d. in duplicate plates (in the same direction as the GR reporters), the well was not scored as a hit.
We used the system of Example 1 to screen a library of 1040 natural products and FDA-approved drugs for modulators of GR signaling (Abbott, A. Nature 417:109). The screen design is outlined in FIG. 2. The pENaC-CFP, pGILZ-YFP, and pFKBP5-OFP reporters indicated GR signaling, while pSV40-mCh, an internal control, excluded non-specific transcription inhibitors and toxins. We screened the library in duplicate in the presence of saturating dex (100 nM). Z′, a function that reflects the ability to discriminate between control and experimental wells (Zhang, J. H. et al., J Biomol Screen 4:67-73 (1999)), was determined for dex treatment of each GR reporter. The Z′ values were: Z′(ENAC-CFP)=0.68; Z′(GILZ-YFP)=0.64; and Z′(FKBP5-OFP)=0.66. These indicate that the screen should efficiently identify compounds that increase or decrease fluorescence from any of the three experimental promoters (Zhang, J. H. et al., J Biomol Screen 4:67-73 (1999)).

Experiment [2] has as its target T1, GR. As to the kind of experiment: Luciferase assays, GR-responsive reporters, A549 cells. Also noted: endogenous in cells; host or cells: A549. Conditions: for Dose dependent: whether the drug acted dose-dependently on GR-luciferase reporters; for GR activity (GR-mediated induction of pENaC-luc reporter): pENaC-luc and pSV40-rl. The protocol:
(§1) Transfections. The day prior to transfection, ˜3×10^5 cells were plated in 6-well dishes. Transfections used Lipofectamine 2000 (Invitrogen). 4 μg of total plasmid DNA were used for each transfection. For A549 cells, 500 μL of DNA/lipofectamine complex was added to 1.5 ml of DMEM with pen/strep and 5% FBS. For U2OS cells, 500 μl of DNA/lipofectamine complex was added to 1.5 ml of Optimem. After 3-4 hours of incubation, media was replaced with standard growth media.
(§2) Luciferase assays. Luciferase assays used the Promega Dual-Luciferase Reporter system. Briefly, cells were transfected with various firefly luciferase plasmids and pSV40-RL at a ratio of 10:1. The day after transfection, cells were split into 96-well dishes and treated with dex and various drugs. Cells were harvested in 50 μl 1XPLB (Promega) 12-18 hr after drug treatment and luciferase assays were performed on 10 μl of lysate. Luminscence was detected using an Ultra Evolution plate reader (Tecan).
A general note: Reporter assays use an easily measured gene product as a stand-in for the process of interest.

Experiment [3] has as its target T2, GR (Rattus norvegicus, UniProt P06536).
T2 construct: expressed in transfected cells; host or cells: U2OS-GR
T2 sequence (P06536 1-795): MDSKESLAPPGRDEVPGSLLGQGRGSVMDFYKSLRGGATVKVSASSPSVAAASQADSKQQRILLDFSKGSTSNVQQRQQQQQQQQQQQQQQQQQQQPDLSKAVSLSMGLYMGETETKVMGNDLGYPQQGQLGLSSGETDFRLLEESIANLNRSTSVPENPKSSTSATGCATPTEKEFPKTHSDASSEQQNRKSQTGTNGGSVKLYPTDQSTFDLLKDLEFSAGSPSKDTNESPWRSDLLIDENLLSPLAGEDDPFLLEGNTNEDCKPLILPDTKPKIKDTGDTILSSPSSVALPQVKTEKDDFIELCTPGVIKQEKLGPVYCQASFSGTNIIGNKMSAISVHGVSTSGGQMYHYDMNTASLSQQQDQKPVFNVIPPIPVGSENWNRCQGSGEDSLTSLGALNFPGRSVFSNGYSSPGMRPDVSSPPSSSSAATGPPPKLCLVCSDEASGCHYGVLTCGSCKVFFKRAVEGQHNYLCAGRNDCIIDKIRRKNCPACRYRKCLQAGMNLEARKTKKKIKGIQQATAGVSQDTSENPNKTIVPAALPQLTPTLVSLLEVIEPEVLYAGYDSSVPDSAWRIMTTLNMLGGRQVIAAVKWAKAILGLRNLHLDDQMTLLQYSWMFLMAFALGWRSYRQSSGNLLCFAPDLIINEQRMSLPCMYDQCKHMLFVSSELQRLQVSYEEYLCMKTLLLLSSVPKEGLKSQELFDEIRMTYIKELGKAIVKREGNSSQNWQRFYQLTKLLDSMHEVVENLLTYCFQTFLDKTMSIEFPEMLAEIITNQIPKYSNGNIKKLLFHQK
As to the kind of experiment: Luciferase assays, GR-responsive reporters, U2OS-GR cells. The settings on record: pENaC-luc and pSV40-rl, with dex. The protocol: as §1, §2

Experiment [4] concerns GR. Put plainly: qPCR of endogenous GR target genes, cell line not distinguished (FIG. 4B, 5D). The settings on record: with dex, 24 hr. The text has this: Quantitative PCR. Total RNA isolation used Trizol and Pure Link (Invitrogen). […] Rpl19 expression was used for data normalization.
A general note: In qPCR the cycle at which signal appears reflects the starting amount.

Consider `C[N+]1(C)CCCC(OC(=O)C(O)(c2ccccc2)c2ccccc2)C1` (centres unmarked) [Mepenzolate], for which, at GR [1], the ENaC-CFP entry was “No effect”, the FKBP5-OFP entry is “↓ (0.8 to 2 s.d. less than the mean (↓))” and the GILZ-YFP result is reported as “↓ (0.8 to 2 s.d. less than the mean (↓))”. For the same molecule, the Dose dependent entry at GR [2] is “no”.

Take `O=C(/C=C/c1ccccc1)/C=C/c1ccccc1O` [NSC636788]: the “GR activity (GR-mediated induction of pENaC-luc reporter)” value at GR [2] (A549 cells, with dex) is on record as “dose dependently reduced GR activity”.

`O=C1c2c(O)ccc(O)c2C(=O)c2c(NCCNCCO)ccc(NCCNCCO)c21` [Mitoxantrone]: on GR [1], the ENaC-CFP entry is on record as “↓↓↓ (more than 2 standard deviations (s.d.) less than the mean (↓↓↓))”, the FKBP5-OFP entry is recorded as “↓↓↓ (more than 2 standard deviations (s.d.) less than the mean (↓↓↓))” and the GILZ-YFP entry was “↓↓↓ (more than 2 standard deviations (s.d.) less than the mean (↓↓↓))”. Further, on GR [3], the “GR activity (luciferase reporter)” value is listed as “inhibited GR”. On GR [2] (A549 cells, with dex), the “GR activity (GR-mediated induction of pENaC-luc reporter)” value is reported as “antagonists of GR”. Further, on GR [2], the Dose dependent result is reported as “yes”.

Consider a amanitin, for which the “effect on GR-dependent reporter pENaC-luc compared with GR-independent constitutive reporter pSV40-rl” value on GR [2] (A549 cells, with dex) is reported as “reduced the activity of both reporters to similar extents”.

On to `CS(=O)(=O)c1ccc([C@@H](O)[C@@H](CO)NC(=O)C(Cl)Cl)cc1` [Thiamphenicol], for which, at GR [1], the ENaC-CFP result is “No effect”, the FKBP5-OFP entry is recorded as “↑↑↑^e (more than 2 s.d. greater than the mean (↑↑↑))” and the GILZ-YFP result is on record as “No effect”. At GR [2], the Dose dependent entry is given as “no”.

Take `COC(=O)[C@H]1[C@H]2C[C@@H]3c4[nH]c5cc(OC)ccc5c4CCN3C[C@H]2C[C@@H](OC(=O)c2cc(OC)c(OC)c(OC)c2)[C@@H]1OC` [Reserpine]: on GR [1], the ENaC-CFP result is on record as “↑ (0.8 to 2 s.d. greater than the mean (↑))”, the FKBP5-OFP result is “↑ (0.8 to 2 s.d. greater than the mean (↑))” and the GILZ-YFP entry was “↑ (0.8 to 2 s.d. greater than the mean (↑))”. In addition, at GR [2], the Dose dependent entry was “no”.

`O=c1oc2c(O)c(O)cc3c(=O)oc4c(O)c(O)cc1c4c23` [Ellagic Acid]: on GR [1], the ENaC-CFP result was “No effect”, the FKBP5-OFP entry is given as “↓ (0.8 to 2 s.d. less than the mean (↓))” and the GILZ-YFP result is “↓ (0.8 to 2 s.d. less than the mean (↓))”. Also, the Dose dependent entry on GR [2] was “no”.

As for `COc1cccc2c1C(=O)c1c(O)c3c(c(O)c1C2=O)C[C@@](O)(C(=O)CO)C[C@@H]3O[C@H]1C[C@H](N)[C@H](O)[C@H](C)O1` [Doxorubicin], the “GR activity (GR-mediated induction of pENaC-luc reporter)” value on GR [2] (A549 cells, with dex) was “inhibited GR”.

`COc1cccc2c1C(=O)c1c(O)c3c(c(O)c1C2=O)C[C@@](O)(C(C)=O)C[C@@H]3O[C@H]1C[C@H](N)[C@H](O)[C@H](C)O1` [daunorubicin]: the “GR activity (GR-mediated induction of pENaC-luc reporter)” value on GR [2] (A549 cells, with dex) is “inhibited GR”.

Consider `CCCCCC(=O)O[C@]1(C(C)=O)CC[C@H]2[C@@H]3CCC4=CC(=O)CC[C@]4(C)[C@H]3CC[C@@]21C` [Hpg. caproate, Hydroxyprogesterone caproate], for which, on GR [1], the ENaC-CFP entry is reported as “No effect”, the FKBP5-OFP entry is listed as “↓↓↓ (more than 2 standard deviations (s.d.) less than the mean (↓↓↓))” and the GILZ-YFP entry was “↓↓↓ (more than 2 standard deviations (s.d.) less than the mean (↓↓↓))”. Further, in the experiment on GR [4], the “expression of endogenous GR target genes (qPCR), overall” value (“expression” below) is “selectively modulated endogenous GR target genes”; the “induction of endogenous ENaC (qPCR)” value is “no impact”; the “induction of endogenous FKBP5 (qPCR)” value was “reduced induction”; the “induction of endogenous GILZ (qPCR)” value was “reduced induction”. Also, the Dose dependent result on GR [2] is listed as “yes”. The Dose dependent entry at GR [2] (listed as Hpg) is “dose dependent effects”.

Consider `O=C1C=CC(=C(c2ccc(O)cc2)c2ccc(O)cc2)C=C1` [Rosolic Acid], for which, on GR [1], the ENaC-CFP result was “↓ (0.8 to 2 s.d. less than the mean (↓))”, the FKBP5-OFP entry is on record as “↓ (0.8 to 2 s.d. less than the mean (↓))” and the GILZ-YFP entry is reported as “No effect”. Moreover, in the experiment on GR [4], the “expression” value is reported as “selectively modulated endogenous GR target genes”; the “induction of endogenous ENaC (qPCR)” value is “inhibited”; the “induction of endogenous FKBP5 (qPCR)” value is listed as “inhibited”; the “induction of endogenous GILZ (qPCR)” value was “failed to inhibit”. For the same molecule, the Dose dependent entry on GR [2] is “yes”. Moreover, the Dose dependent result on GR [2] (listed as rosolic acid) was “dose dependent effects”.

Turning to `O=C1C=CC(=C(c2ccccc2)c2ccc(O)cc2)C=C1` [NSC55861], the “GR activity (GR-mediated induction of pENaC-luc reporter)” value at GR [2] (A549 cells, with dex) was “dose dependently reduced GR activity”.

For `Cc1cc(C2CCCCC2)n(O)c(=O)c1` [Ciclopirox olamine], on GR [1], the ENaC-CFP result is “↓^c (0.8 to 2 s.d. less than the mean (↓))”, the FKBP5-OFP result is given as “no effect” and the GILZ-YFP entry is reported as “↓ (0.8 to 2 s.d. less than the mean (↓))”. The “expression” value with GR [4] is “general GR antagonist”. The Dose dependent entry at GR [2] was “dose dependent effects and yes”.
